Assay results: ChEMBL document CHEMBL5223093, “Recent advances in the discovery of protein tyrosine phosphatase SHP2 inhibitors” (RSC Med Chem, 2022)

Experiments:
[1] = Downregulation of DUSP6 transcription in human KYSE-520 cells at 30 uM measured after 2 hrs relative to control; assay type: functional
[2] = target: T1, Tyrosine-protein phosphatase non-receptor type 11 (Homo sapiens, UniProt Q06124); experiment: Inhibition of full length SHP2 (unknown origin) using DiFMUP as substrate preincubated for 30 mins followed by substrate addition
T1 sequence (Q06124 whole entry): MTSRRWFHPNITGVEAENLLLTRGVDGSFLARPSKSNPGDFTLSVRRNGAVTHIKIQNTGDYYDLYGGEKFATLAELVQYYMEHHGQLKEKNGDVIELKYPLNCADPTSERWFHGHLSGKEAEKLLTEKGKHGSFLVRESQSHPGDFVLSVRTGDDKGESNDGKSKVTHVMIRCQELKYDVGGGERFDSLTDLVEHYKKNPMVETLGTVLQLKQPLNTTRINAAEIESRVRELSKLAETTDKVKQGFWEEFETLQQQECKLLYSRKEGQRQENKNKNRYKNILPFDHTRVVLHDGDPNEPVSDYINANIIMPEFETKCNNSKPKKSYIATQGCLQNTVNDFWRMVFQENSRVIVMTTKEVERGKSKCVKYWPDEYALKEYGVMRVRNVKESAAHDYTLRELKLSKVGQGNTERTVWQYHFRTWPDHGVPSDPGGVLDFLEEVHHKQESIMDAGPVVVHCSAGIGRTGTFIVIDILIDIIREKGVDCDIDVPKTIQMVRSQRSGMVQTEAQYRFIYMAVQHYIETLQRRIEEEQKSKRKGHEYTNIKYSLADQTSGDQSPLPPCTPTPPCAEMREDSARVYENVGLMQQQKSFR

Row | IC50 [2] | Structure (SMILES) | Activity [1]
1 | – | COc1cccc(-c2nnc3n(Cc4ccc(C(=O)N5CCC[C@H]5C(=O)O)cc4Cl)c(=O)c4ccccc4n23)c1O | 43%
2 | – | COc1cccc(-c2nnc3n(Cc4ccccc4Cl)c(=O)c4ccccc4n23)c1O | 65%
3 | 0.583 nM | Cc1nc(N2CCC3(CC2)OC[C@@H](C)[C@H]3N)c(CO)nc1-c1cccc(Cl)c1Cl | –
4 | – | O=C(O)c1ccc(O)c(-c2nnc3n(Cc4ccccc4Cl)c(=O)c4ccccc4n23)c1 | 55%
